# Structures can show the parent of a compound that is named as a salt.
# Test system: human fetal astrocytes derived from cerebral cortex
# Test: Transcriptome analysis of astrocyte cultures treated with MMF, DRF, IDMF
# Type: cell-based
# Settings: 2.5 μM, 24 hours
# Experimental: Experiments were performed using human fetal astrocytes derived from cerebral cortex (cat. no. 882A-05f; Cell Applications, Sant Diego, Calif.). Cells were grown to subconfluence in human astrocyte growth medium (cat. no. 820-500, Cell Applications). […] Test materials were added to subconfluent cultures at a concentration of 2.5 μM and cells were incubated for 24 hours.
# RNA was extracted following the incubation period using the RNAeasy Mini Plus kit (Qiagen, Hilden, Germany) and robotic Qiacube Connect station (Qiagen). Samples were shipped on dry ice to the Thermo Fisher Microarray Research Services Laboratory (Santa Clara, Calif.) for transcriptome analysis. RNA quality analysis was performed upon sample receipt using the NanoDrop Lite (Thermo Fisher Scientific, Waltham, Mass.). All samples had 260/280 nm absorbance ratios higher than 1.90, consistent with high-purity RNA.
# In follow-up to the study of Example, 1 above, genes associated with multiple sclerosis were identified based upon seven established database sources: (1) the NHGRI-EBI genome-wide association (GWA) study catalogue, (2) the Disease Ontology (DO) database, (3) the DisGeNET (curated) database, (4) the DisGeNET (BeFree), (5) MalaCards, (6) the Medical Subject Heading (MESH) database and the KEGG Database. The impact on gene expression of IDMF, MMF and DRF on the key overlapping MS-associated genes was assessed.
# The specific data for four of the key NFR2 target genes associated with antioxidant and anti-inflammatory effects is presented in FIGS. 7(A) thru 7(D).
# Both TNFAIP3 and NFKBIA encode inhibitory proteins that suppress the NF-KB pathway. Specifically, TNFAIP3 encodes a deubiquitinating enzyme previously linked to MS by genetic association studies: a TNFAIP3 protein abundance is increased in white matter and cortical lesion astrocytes from MS patient brains. Similarly, NFKBIA (IκBα) encodes an NF-KB inhibitor for which promoter polymorphisms have been associated with MS and abundance of this protein is prominent in macrophage nuclei of MS plaques undergoing active demyelination. ICAM1 encodes an endothelial adhesion molecule that promotes leucocyte extravasation and is associated with the initiation and progression of inflammation as well as the targeting of inflammation in the central nervous system (CNS). FIGS. 9(A), 9(B) and 9(C) show the specific data for these three genes.
# Genetic variants of IFR has been associated with MS and some MS treatments such as glatiramer acetate block cytokine-stimulated IRF1 up-regulation. An assessment was undertaken to assess the relative impact of fumarate esters, namely MMF, DRF and IDMF on IFR motif enrichment.
structure (smiles),measurement,value
"COC(=O)/C=C/C(=O)O[C@H]1CO[C@H]2[C@@H]1OC[C@H]2OC(=O)/C=C/C(=O)OC [IDMF, isosorbide di-(methyl fumarate)]",IRF1 expression,marked downregulation
same,effect on NRF2 target genes compared with MMF and DRF,much more pronounced effect
same,"effect on TNFAIP3, NFKBIA and ICAM1 expression",marked downregulation
same,expression of heme oxygenase-1 (HMOX1),marked increase in expression

# Reference: patent publication US20220142967A1, “Methods and Compositions for the Treatment of Multiple Sclerosis” (SYMBIONYX PHARMACEUTICALS INC, priority 2018, published 2022)
